Assays:
Euglena gracilis Z [1] = test: Study 2 and reference study: proliferation (cell density) of Euglena under strong or weak light; assay type: cell-based; conditions: 0.5 mM ascorbic acid in place of PMF
Procedure: The CM medium having a PMF concentration of 0.5 g/L was placed into the same three-electrode electrochemical cell as the Study 1.
To the medium, the precultured Euglena was added at an initial density (OD800) of 0.05 and electrochemically cultured under strong light having an intensity of 5000 lux, which is about one tenth of the maximum intensity of sunlight. After 0, 24, 48, 76, 96, and 148 hours from the start of the culture, the cell density was determined (Example 2). The voltage applied was +0.6 V vs. SHE.
A similar study was performed on Euglena non-electrochemically cultured in the medium that included no PMF (Comparative Example 3).
A similar study was also performed on Euglena electrochemically cultured in the medium that included PMF (Comparative Example 4) and Euglena electrochemically cultured in the medium that included no PMF (Comparative Example 5) under weak light having an intensity of 1000 lux, which is about one fiftieth of the maximum intensity of sunlight.
In the study, proliferation of Euglena that were cultured in the medium supplemented with or without 0.5 mM of ascorbic acid in place of PMF used in the Study 2 under strong light or under weak light was compared. The study was performed in the same manner as in the Study 2 except that 0.5 mM of ascorbic acid was added in place of PMF.

Euglena gracilis Z [2] = test: Study 3: photocurrent after addition of Euglena and of electron transport inhibitor DBMIB; assay type: cell-based; conditions: DBMIB 100 μM added after about 37 minutes to PMF 3 g/L medium with Euglena; current before about 8 μA
Procedure: To determine whether the effect of the medium supplemented with PMF in facilitating the proliferation of Euglena in electrochemical culture as shown by the Studies 1 and 2 is attributed to extracellular transfer of electrons from Euglena, DBMIB (2,5-dibromo-3-methyl-6-isopropyl-p-benzoquinone), which is an electron transport inhibitor, was added to the culture system that included PMF, and a change in photocurrent was measured.
DBMIB binds to the plastoquinone-binding site of the cytochrome b6f and prevents the oxidation of reduced plastoquinone thereby inhibiting electron transport. DBMIB inhibits the transfer of electrons from plastoquinone to the photosystem I and thus is used to measure the activity of the photosystem II.
In the Study 3, the CM medium having a PMF concentration of 3 g/L was placed into the same three-electrode electrochemical cell as the Study 1. Then, the electrochemical cell was placed into a shielded enclosure to measure the photocurrent.
After about 21 minutes from the start of the measurement, the precultured Euglena was added at an initial density (OD800) of 0.5. After about 37 minutes from the start of the measurement, DBMIB was added at a concentration of 100 μM to the medium.

Compound | facilitating the proliferation of Euglena under strong light (Euglena gracilis Z [1]; strong light (5000 lux)) | facilitating the proliferation of Euglena under weak light (Euglena gracilis Z [1]; weak light (1000 lux)) | current after addition of DBMIB (Euglena gracilis Z [2])
O=C1O[C@H]([C@@H](O)CO)C(O)=C1O [ascorbic acid] | effective in facilitating the proliferation of Euglena | not effective in facilitating the proliferation | 
CC1=C(Br)C(=O)C(C(C)C)=C(Br)C1=O [DBMIB, 2,5-dibromo-3-methyl-6-isopropyl-p-benzoquinone] |  |  | about 4 μA
